# Assay results published in ChEMBL document CHEMBL1811893, “Seco-eremophiladiolides and eremophilane glucosides from Pittocaulon velatum” (J Nat Prod, 2011).
# Calls of active or inactive are those of the source. No cut-off for these calls is given here.
# System: Rattus norvegicus
# Assay: Antiinflammatory activity in Lewis rat assessed as inhibition of TPA-induced ear edema
# Assay type: functional, organism-based
row,SMILES,Activity
1,C[C@H]1C[C@@H](O)C[C@H]2C(=O)c3occ(CO)c3[C@@H](O)[C@]12C,inactive
2,Cc1coc2c1[C@@H](OCC(C)C)[C@]1(C)[C@@H](C)CCC[C@H]1C2=O,inactive
3,C/C(=C\O[C@@H]1O[C@H](CO)[C@@H](O)[C@H](O)[C@H]1O)[C@@H]1C[C@@]2(C)C(=CC1=O)CCC[C@@H]2C,inactive
4,C/C(=C\O[C@@H]1O[C@H](CO)[C@@H](O)[C@H](O)[C@H]1O)[C@@H]1C[C@@]2(C)C(=CC1=O)CC[C@@H](O)[C@@H]2C,inactive
5,C/C(=C\O[C@@H]1O[C@H](CO)[C@@H](O)[C@H](O)[C@H]1O)[C@@H]1C[C@@]2(C)C(=CC1=O)CC[C@H](O)[C@@H]2C,inactive
6,CC1=C([C@H]2OC(=O)[C@@H]3CCC[C@H](C)[C@@]23C)C(=O)OC1,inactive
7,C/C(=C\O[C@@H]1O[C@H](CO)[C@@H](O)[C@H](O)[C@H]1O)[C@@H]1C[C@@]2(C)C(=CC1=O)[C@H](O)CC[C@@H]2C,inactive
8,CC1=C([C@@H]2OC(=O)[C@@H]3CCC[C@H](C)[C@]32C)C(=O)OC1,inactive
9,Cc1coc2c1[C@@H](OCC(C)C)[C@]1(C)[C@@H](C)CC[C@H]3O[C@]31C2=O,inactive
